Columns and labels:
[1] = Stability of active agent in the dissolution medium; type: physicochemical; settings: 37° C.
Protocol: Determination of Stability of active Agent in the Dissolution Medium
Following 1, 2, 4, 6, 8 and 24 hrs the absorption profile of the drug between 200 nm and 300 nm was determined and compared with the absorption profile of the solutions before storage.

Streptococci group A = settings: cited from earlier work
Streptococci pneumoniae = settings: cited from earlier work
Staphylococcus aureus = settings: cited from earlier work
Haemophilus influenza = settings: cited from earlier work
Enterococcus faecalis = settings: cited from earlier work

For `CC1(C)S[C@@H]2[C@H](NC(=O)[C@H](N)c3ccc(O)cc3)C(=O)N2[C@H]1C(=O)O` [Amoxicillin, amoxicillin trihydrate], the Stability in solution ([1]; pH=1.2, after 1hr) was “deterioration occurred”, the Stability in solution ([1]; pH=2, after 6 hrs) was “stable” and the Stability in solution ([1]; pH=6.8, after 24 hrs) was “stable”. The Stability in solution ([1]; pH=7.4, after 24 hrs) was “stable”, the MIC (Streptococci group A) was 0.01 µg/mL and the MIC (Streptococci pneumoniae) was 0.02 µg/mL. The MIC (Staphylococcus aureus) was 0.1 µg/mL, the MIC (Haemophilus influenza) was 0.25 µg/mL and the MIC (Enterococcus faecalis) was 0.5 µg/mL.
